Test results published in patent US20220257552A1, “METHODS OF PRESCREENING AND TREATING BREAST CANCERS WITH SELECTIVE ANDROGEN RECEPTOR MODULATORS” (priority 2021, published 2022).

Legend:
GR = molecular target: T1, GR (Rattus norvegicus, UniProt P06536); assay: GR transactivation in HEK-293 cells; type: cell-based
T1 construct: expressed in transfected cells
Protocol: (§1) Rat GR, MR, PR, ER-α and ER-β were individually cloned into a pCR3.1 vector backbone. Sequencing was performed to verify the absence of any mutations. HEK-293 cells were plated at 90,000 cells per well of a 24 well plate in Dulbecco's Minimal Essential Media supplemented with 5% charcoal-stripped FBS. […] Luciferase assays were performed 48 h after transfection. Transcriptional activation values are represented as firefly luciferase normalized to renilla luciferase.

ER-α = molecular target: T2, ER-α (Rattus norvegicus, UniProt P06211); assay: ER-α transactivation in HEK-293 cells; type: cell-based
T2 construct: expressed in transfected cells
T2 sequence (P06211 whole entry): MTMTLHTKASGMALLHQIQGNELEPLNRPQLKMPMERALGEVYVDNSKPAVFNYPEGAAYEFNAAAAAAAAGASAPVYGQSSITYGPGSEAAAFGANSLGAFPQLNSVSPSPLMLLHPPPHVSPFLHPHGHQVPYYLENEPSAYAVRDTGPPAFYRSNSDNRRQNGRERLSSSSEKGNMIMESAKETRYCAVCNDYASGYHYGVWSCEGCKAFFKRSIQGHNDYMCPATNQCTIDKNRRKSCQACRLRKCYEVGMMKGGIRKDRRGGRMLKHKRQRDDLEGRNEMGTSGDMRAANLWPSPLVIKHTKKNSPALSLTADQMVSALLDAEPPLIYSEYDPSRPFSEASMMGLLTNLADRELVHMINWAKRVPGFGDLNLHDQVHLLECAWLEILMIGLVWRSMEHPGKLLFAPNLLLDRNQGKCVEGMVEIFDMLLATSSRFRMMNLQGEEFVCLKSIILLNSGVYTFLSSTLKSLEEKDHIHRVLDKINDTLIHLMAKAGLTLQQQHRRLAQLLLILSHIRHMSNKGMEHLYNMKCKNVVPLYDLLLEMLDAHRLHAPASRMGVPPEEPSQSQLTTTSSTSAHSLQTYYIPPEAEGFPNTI
Protocol: as §1

[1] = Phase 3 trials in non-small cell lung cancer (muscle wasting); type: in vivo, human; conditions: 3 mg daily
Source text: These include: 1. Protocol G100401, a Phase 1 single ascending dose study in 96 healthy, young, male volunteers; 2. Protocol G100402, a Phase 1 multiple ascending dose study in 50 healthy, young, male volunteers, and 23 elderly male volunteers with truncal obesity; 3. Protocol G100503, a Phase 1 single dose pharmacokinetic study to assess the effect of a dosage regimen that simulates a sustained release formulation to an immediate release formulation in 18 healthy, young male volunteers and 18 postmenopausal women; 4. Protocol G100506, a Phase 1 single dose pharmacokinetic study to assess the relative bioavailability of a 3 mg hard shell capsule formulation to be used during continued clinical development and to assess the effect of food on the pharmacokinetics of the 3 mg softgel formulation in 27 healthy, young, male volunteers; 5. Protocol 006, a Phase 1 single dose and multiple dose pharmacokinetic study in 24 postmenopausal, Japanese women; 6. Protocol G200501, a Phase 2 study in 60 postmenopausal women and 60 elderly men to assess lean body mass and physical function; 7. Protocol 003, a Phase 1b study in 44 postmenopausal women; 8.

GAR15-13 PDX = assay: GAR15-13 palbociclib-resistant PDX in NSG mice; conditions: mouse, in vivo
Source text: Data were presented as mean values±s.e.m. […] Data represented the mean±s.e.m. of four replicate cell culture wells per condition. […] P values are indicated by gray asterisks, where ****P<0.0001 for all highlighted comparisons.
Tissue samples from an ER-positive, PR-negative, and HER2-negative (ER^+, PR^−, HER2^−) patient that progressed on (i.e., was resistant to) palbociclib were implanted into animal (NSG mice) models and grown as a patient-derived xenograft (PDX). […] This human tumor model also had amplification of the cyclin D1 (CCND1^Amp) gene which has been implicated as a driver of therapeutic resistance to CDKi. […] This is also observed in other models tested in vitro including a palbociclib resistant MCF-7 (MCF7 palbo^R) line (FIG. 44B).

BR-0001 tumors = assay: Microarray and AR ChIP-Seq of BR-0001 tumors; type: in vivo, mice
Protocol: Chromatin Immunoprecipitation Assay (ChIP). Proteins were cross-linked by incubation with 1% formaldehyde (final concentration) at 37° C. for 10 min. Tumors were homogenized using a probe hand-held homogenizer. The cells were washed with 1×PBS twice, scraped in 1 mL of PBS containing protease inhibitors ([[…] each of aprotinin, leupeptin, antipain, benzamidine HCl, and pepstatin/mL], 0.2 mM phenylmethylsulfonyl fluoride, and 1 mM sodium vanadate), pelleted, and resuspended in SDS lysis buffer (1% SDS, 10 mM EDTA, 50 mM Tris-HCl [pH 8.1]).
After lysis on ice for 10 min, the cell extract was sonicated (Branson sonifier 250) in a cold room eight times for 10 s each at constant duty cycle, with an output of 3 and with incubation on ice after every sonication. The debris was pelleted at 13,000 rpm for 10 min at 4° C., and the supernatant was diluted 10-fold with ChIP dilution buffer (0.01% SDS, 1.1% Triton X-100, 1.2 mM EDTA, 16.7 mM Tris HCl [pH 8.1], 167 mM NaCl). The proteins were precleared with 50 μL of 1:1 protein A-Sepharose beads in TE. […]
In the gene expression study described above, RNA was isolated from the BR-0001 TNBC tumors and the expression of genes in the entire genome was measured by microarray (Affymetrix, ST2.0 array). […]

T1 sequence (P06536 whole entry): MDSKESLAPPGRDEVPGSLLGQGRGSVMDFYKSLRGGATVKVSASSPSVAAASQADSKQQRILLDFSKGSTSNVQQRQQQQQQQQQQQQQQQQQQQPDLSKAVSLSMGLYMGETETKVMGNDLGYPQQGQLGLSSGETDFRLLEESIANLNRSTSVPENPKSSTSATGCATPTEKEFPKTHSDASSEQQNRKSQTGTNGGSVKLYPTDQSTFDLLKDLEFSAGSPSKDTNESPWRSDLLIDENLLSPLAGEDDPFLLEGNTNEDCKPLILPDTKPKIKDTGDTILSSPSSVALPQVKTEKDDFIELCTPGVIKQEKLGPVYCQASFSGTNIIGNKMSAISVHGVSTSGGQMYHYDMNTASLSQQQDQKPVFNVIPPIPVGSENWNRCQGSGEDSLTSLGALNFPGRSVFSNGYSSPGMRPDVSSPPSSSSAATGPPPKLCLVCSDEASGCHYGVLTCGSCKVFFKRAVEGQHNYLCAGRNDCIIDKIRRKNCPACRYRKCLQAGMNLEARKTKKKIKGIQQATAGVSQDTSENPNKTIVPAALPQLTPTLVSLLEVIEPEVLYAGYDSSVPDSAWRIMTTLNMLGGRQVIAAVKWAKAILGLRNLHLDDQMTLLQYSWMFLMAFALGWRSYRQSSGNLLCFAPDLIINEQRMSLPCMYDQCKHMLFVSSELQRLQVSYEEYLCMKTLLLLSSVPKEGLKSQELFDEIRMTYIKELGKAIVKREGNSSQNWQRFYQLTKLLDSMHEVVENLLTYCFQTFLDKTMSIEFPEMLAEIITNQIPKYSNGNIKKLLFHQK

SMILES	GR-mediated transactivation, agonist mode (GR; all tested concentrations)	dexamethasone-induced GR-mediated transactivation, antagonist mode (GR; co-incubation)	17β-estradiol-induced ER-α activity, antagonist mode (ER-α; co-incubation)	ERα-mediated transactivation, agonist mode (ER-α; highest tested concentration 1 μM)	lean body mass [1]	tumor growth response (GAR15-13 PDX)	AR-occupied promoters with the gene up-regulated (BR-0001 tumors; mouse, in vivo) [%]	promoters to which AR was recruited (BR-0001 tumors; −5 kb to +1 kb) [promoters]
C[C@](O)(COc1ccc(C#N)cc1)C(=O)Nc1ccc(C#N)c(Cl)c1 [Formula VIII, (S)—N-(3-chloro-4-cyanophenyl)-3-(4-cyanophenoxy)-2-hydroxy-2-methylpropanamide]	did not induce	failed to alter	failed to alter	failed to activate	–	–	–	–
C[C@](O)(COc1ccc(C#N)cc1)C(=O)Nc1ccc(C#N)c(C(F)(F)F)c1 [Formula IX, (S)—N-(4-Cyano-3-(trifluoromethyl)phenyl)-3-(4-cyanophenoxy)-2-hydroxy-2-methylpropanamide]	–	–	–	–	increased	responsive	20	176
